Measured values reported in patent publication US20250188092A1, “RIFAMYCIN ANALOGS” (THE REGENTS OF THE UNIVERSITY OF MICHIGAN, priority 2021, published 2025).
Read-outs that look alike come from different tables or passages of the source.

Tested on: non-replicating cultures of M. tuberculosis H37Rv transformed with lux ABCDE
Experiment: microbe, parasite or virus in culture
Format: cell-based, Mycobacterium tuberculosis
Settings: for MIC90 LORA/MABA: ratio of LORA MIC90 to MABA MIC90
[1] = Mycobacterium tuberculosis, H37RV, […], ≥90% reduction in luminescence, read-out: MIC90 LORA
[2] = […], ≥90% reduction in luminescence, read-out: MIC90 LORA

| SMILES | MIC90 LORA Rel to RMP | MIC [1] [µM] | MIC90 [1] [µM] | MIC90 LORA/MABA | MIC90 [2] [µM] |
| --- | --- | --- | --- | --- | --- |
| CO[C@H]1/C=C/O[C@@]2(C)Oc3c(C)c(O)c4c(=O)c(c5oc6cc(N7CCN(CC(C)C)CC7)cc(OCc7ccc(CN8CCNCC8)cc7)c6nc-5c4c3C2=O)NC(=O)/C(C)=C\C=C\[C@H](C)[C@H](O)[C@@H](C)[C@@H](O)[C@@H](C)[C@H](OC(C)=O)[C@@H]1C [Compound 17b, (7S,9E,11S,12R,13S,14R,15R,16R,17S,18S,19E,21Z)-2,15,17-Trihydroxy-11-methoxy-3,7,12,14,16,18,22-heptamethyl-30-[4-(2-methylpropyl)piperazin-1-yl]-6,23,37-trioxo-32-({4-[(piperazin-1-yl)methyl]phenyl}methoxy)-8,27,38-trioxa-24,34-diazahexacyclo[23.11.1.1^4,7.0^5,36.0^26,35.0^28,33]octatriaconta-1(36)2,4,9,19,21,25,28,30,32,34-undecaen-13-yl acetate] | 1.3 | < 0.016 | – | – | – |
| CO[C@H]1/C=C/O[C@@]2(C)Oc3c(C)c(O)c4c(=O)c(c5oc6cc(N7CCN(CC(C)C)CC7)cc(OCc7ccc(CN8CCN(C(=O)CN9CCOCC9)CC8)cc7)c6nc-5c4c3C2=O)NC(=O)/C(C)=C\C=C\[C@H](C)[C@H](O)[C@@H](C)[C@@H](O)[C@@H](C)[C@H](OC(C)=O)[C@@H]1C [Compound 17d, (7S,9E,11S,12R,13S,14R,15R,16R,17S,18S,19E,21Z)-2,15,17-Trihydroxy-11-methoxy-3,7,12,14,16,18,22-heptamethyl-30-[4-(2-methylpropyl)piperazin-1-yl]-32-{[4-({4-[2-(morpholin-4-yl)acetyl]piperazin-1-yl}methyl)phenyl]methoxy}-6,23,37-trioxo-8,27,38-trioxa-24,34-diazahexacyclo[23.11.1.1^4,7.0^5,36.0^26,35.0^28,33]octatriaconta-1(36)2,4,9,19,21,25,28,30,32,34-undecaen-13-yl acetate] | – | – | < 0.016 | – | – |
| CO[C@H]1/C=C/O[C@@]2(C)Oc3c(C)c(O)c4c(=O)c(c5oc6cc(N7CCN(C(=O)c8cccc(-n9ccnc9)c8)CC7)cc(C)c6nc-5c4c3C2=O)NC(=O)/C(C)=C\C=C\[C@H](C)[C@H](O)[C@@H](C)[C@@H](O)[C@@H](C)[C@H](OC(C)=O)[C@@H]1C [Compound 29a, (7S,9E,11S,12R,13S,14R,15R,16R,17S,18S,19E,21Z)-2,15,17-Trihydroxy-30-{4-[3-(1H-imidazol-1-yl)benzoyl]piperazin-1-yl}-11-methoxy-3,7,12,14,16,18,22,32-octamethyl-6,23,37-trioxo-8,27,38-trioxa-24,34-diazahexacyclo[23.11.1.1^4,7.0^5,36.0^26,35.0^28,33]octatriaconta-1(36)2,4,9,19,21,25,28,30,32,34-undecaen-13-yl acetate] | 0.61 | – | 0.126 | 3.5 | – |
| CO[C@H]1/C=C/O[C@@]2(C)Oc3c(C)c(O)c4c(=O)c(c5oc6cc(N7CCN(CCCO[C@@H]8COc9nc([N+](=O)[O-])cn9C8)CC7)cc(C)c6nc-5c4c3C2=O)NC(=O)/C(C)=C\C=C\[C@H](C)[C@H](O)[C@@H](C)[C@@H](O)[C@@H](C)[C@H](OC(C)=O)[C@@H]1C [Compound 29d, (7S,9E,11S,12R,13S,14R,15R,16R,17S,18S,19E,21Z)-2,15,17-Trihydroxy-11-methoxy-3,7,12,14,16,18,22,32-octamethyl-30-[4-(3-{[(6S)-2-nitro-5H,6H,7H-imidazo[2,1-b][1,3]oxazin-6-yl]oxy}propyl)piperazin-1-yl]-6,23,37-trioxo-8,27,38-trioxa-24,34-diazahexacyclo[23.11.1.1^4,7.0^5,36.0^26,35.0^28,33]octatriaconta-1(36)2,4,9,19,21,25,28,30,32,34-undecaen-13-yl acetate] | 0.20 | – | 0.053 | 1.4 | – |
| CO[C@H]1/C=C/O[C@@]2(C)Oc3c(C)c(O)c4c(=O)c(c5oc6cc(C)cc(N7CCN(C)CC7)c6nc-5c4c3C2=O)NC(=O)/C(C)=C\C=C\[C@H](C)[C@H](O)[C@@H](C)[C@@H](O)[C@@H](C)[C@H](OC(C)=O)[C@@H]1C [Compound 30a, (7S,9E,11S,12R,13S,14R,15R,16R,17S,18S,19E,21Z)-2,15,17-Trihydroxy-11-methoxy-3,7,12,14,16,18,22,30-octamethyl-32-(4-methylpiperazin-1-yl)-6,23,37-trioxo-8,27,38-trioxa-24,34-diazahexacyclo[23.11.1.1^4,7.0^5,36.0^26,35.0^28,33]octatriaconta-1(36)2,4,9,19,21,25,28,30,32,34-undecaen-13-yl acetate] | <0.06 | – | – | – | <0.016 |
| CO[C@H]1/C=C/O[C@@]2(C)Oc3c(C)c(O)c4c(=O)c(c5oc6cc(C=O)cc(N7CCN(C)CC7)c6nc-5c4c3C2=O)NC(=O)/C(C)=C\C=C\[C@H](C)[C@H](O)[C@@H](C)[C@@H](O)[C@@H](C)[C@H](OC(C)=O)[C@@H]1C [Compound 30b, (7S,9E,11S,12R,13S,14R,15R,16R,17S,18S,19E,21Z)-30-Formyl-2,15,17-trihydroxy-11-methoxy-3,7,12,14,16,18,22-heptamethyl-32-(4-methylpiperazin-1-yl)-6,23,37-trioxo-8,27,38-trioxa-24,34-diazahexacyclo[23.11.1.1^4,7.0^5,36.0^26,35.0^28,33]octatriaconta-1(36)2,4,9,19,21,25,28,30,32,34-undecaen-13-yl acetate] | 0.44 | – | – | 3.1 | 0.114 |
| CO[C@H]1/C=C/O[C@@]2(C)Oc3c(C)c(O)c4c(=O)c(c5oc6cc(C)cc(N7CCN(CC(C)C)CC7)c6nc-5c4c3C2=O)NC(=O)/C(C)=C\C=C\[C@H](C)[C@H](O)[C@@H](C)[C@@H](O)[C@@H](C)[C@H](OC(C)=O)[C@@H]1C [Compound 30c, (7S,9E,11S,12R,13S,14R,15R,16R,17S,18S,19E,21Z)-2,15,17-Trihydroxy-11-methoxy-3,7,12,14,16,18,22,30-octamethyl-32-[4-(2-methylpropyl)piperazin-1-yl]-6,23,37-trioxo-8,27,38-trioxa-24,34-diazahexacyclo[23.11.1.1^4,7.0^5,36.0^26,35.0^28,33]octatriaconta-1(36)2,4,9,19,21,25,28,30,32,34-undecaen-13-yl acetate] | <0.06 | – | < 0.016 | – | – |
| CO[C@H]1/C=C/O[C@@]2(C)Oc3c(C)c(O)c4c(=O)c(c5oc6cc(C=O)cc(N7CCN(CC(C)C)CC7)c6nc-5c4c3C2=O)NC(=O)/C(C)=C\C=C\[C@H](C)[C@H](O)[C@@H](C)[C@@H](O)[C@@H](C)[C@H](OC(C)=O)[C@@H]1C [Compound 30d, (7S,9E,11S,12R,13S,14R,15R,16R,17S,1S,19E,21Z)-30-Formyl-2,15,17-trihydroxy-11-methoxy-3,7,12,14,16,18,22-heptamethyl-32-[4-(2-methylpropyl)piperazin-1-yl]-6,23,37-trioxo-8,27,38-trioxa-24,34-diazahexacyclo[23.11.1.1^4,7.0^5,36.0^26,35.0^28,33]octatriaconta-1(36)2,4,9,19,21,25,28,30,32,34-undecaen-13-yl acetate] | 0.07 | – | – | – | 0.017 |
| CO[C@H]1/C=C/O[C@@]2(C)Oc3c(C)c(O)c4c(=O)c(c5oc6cc(C)cc(N7CCN(C(=O)c8cccc(-c9ccccn9)c8)CC7)c6nc-5c4c3C2=O)NC(=O)/C(C)=C\C=C\[C@H](C)[C@H](O)[C@@H](C)[C@@H](O)[C@@H](C)[C@H](OC(C)=O)[C@@H]1C [Compound 30g, (7S,9E,11S,12R,13S,14R,15R,16R,17S,18S,19E,21Z)-2,15,17-Trihydroxy-11-methoxy-3,7,12,14,16,18,22,30-octamethyl-6,23,37-trioxo-32-{4-[3-(pyridin-2-yl)benzoyl]piperazin-1-yl}-8,27,38-trioxa-24,34-diazahexacyclo[23.11.1.1^4,7.0^5,36.0^26,35.0^28,33]octatriaconta-1(36)2,4,9,19,21,25,28,30,32,34-undecaen-13-yl acetate] | 0.16 | – | 0.032 | 1.2 | – |
| CO[C@H]1/C=C/O[C@@]2(C)Oc3c(C)c(O)c4c(=O)c(c5oc6cc(C)cc(N7CCN(C(=O)c8ccc9occc9c8)CC7)c6nc-5c4c3C2=O)NC(=O)/C(C)=C\C=C\[C@H](C)[C@H](O)[C@@H](C)[C@@H](O)[C@@H](C)[C@H](OC(C)=O)[C@@H]1C [Compound 30h, (7S,9E,11S,12R,13S,14R,15R,16R,17S,18S,19E,21Z)-32-[4-(1-Benzofuran-5-carbonyl)piperazin-1-yl]-2,15,17-trihydroxy-11-methoxy-3,7,12,14,16,18,22,30-octamethyl-6,23,37-trioxo-8,27,38-trioxa-24,34-diazahexacyclo[23.11.1.1^4,7.0^5,36.0^26,35.0^28,33]octatriaconta-1(36)2,4,9,19,21,25,28,30,32,34-undecaen-13-yl acetate] | 0.20 | – | 0.042 | 2.2 | – |
| CO[C@H]1/C=C/O[C@@]2(C)Oc3c(C)c(O)c4c(=O)c(c5oc6cc(C=Nc7ccc(N8CCOCC8)cc7)cc(N7CCN(C)CC7)c6nc-5c4c3C2=O)NC(=O)/C(C)=C\C=C\[C@H](C)[C@H](O)[C@@H](C)[C@@H](O)[C@@H](C)[C@H](OC(C)=O)[C@@H]1C [Compound 32, (7S,9E,11S,12R,13S,14R,15R,16R,17S,18S,19E,21Z)-2,15,17-trihydroxy-11-methoxy-3,7,12,14,16,18,22-heptamethyl-32-(4-methylpiperazin-1-yl)-30-{N-[4-(morpholin-4-yl)phenyl]carboximidoyl}-6,23,37-trioxo-8,27,38-trioxa-24,34-diazahexacyclo[23.11.1.1^4,7.0^5,36.0^26,35.0^28,33]octatriaconta-1,3,5(36)9,19,21,25,28,30,32,34-undecaen-13-yl acetate] | 0.45 | – | 0.118 | 2.5 | – |
